# Read-outs that look alike come from different tables or passages of the source. Marks after values point to notes of the source that are not given here. Non-standard residues stand in square brackets, D forms with d. Residues, ends and D or L forms follow the SMILES beside them.
# What was measured:
# [1] = tested on: aspergillus flavous; experiment: microbe, parasite or virus in culture; type: cell-based
# Summary of the method: (§1)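 Broth dilution in RPMI-1640 with PL-13 peptide diluted 10-fold from stock; inoculum 1-3×10^3 CFU/ml in the test. Strains activated at 60% humidity, 25 °C for aspergillus or 37 °C for candida; living and blank control wells included.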
# [2] = tested on: candida glabrata; experiment: microbe, parasite or virus in culture; type: cell-based
# Summary of the method: as §1
# [3] = tested on: aspergillus fumigatus; experiment: microbe, parasite or virus in culture; type: cell-based
# Summary of the method: as §1
# [4] = tested on: candida albicans; experiment: microbe, parasite or virus in culture; type: cell-based
# Summary of the method: as §1
# [5] = tested on: candida tropicalis; experiment: microbe, parasite or virus in culture; type: cell-based
# Summary of the method: as §1
# [6] = tested on: candida krusei; experiment: microbe, parasite or virus in culture; type: cell-based
# Text: • (1) Test strains: monilia albicans (candida albicans), candida glabrata, candida krusei, candida tropicalis, aspergillus fumigatus and flavous. (2) Quality control strains: candida krusei JLC30366 (ATCC6258). Antimicrobial peptides PL-13 (SEQ ID NO: 1) under test are supplied by Jiangsu ProteLight Pharmaceutical & Biotechnology Co., LTD. […] (1) The bacterial strains which preserved on PDA slant are respectively inoculated onto PDA plate and slant medium. Activation of bacterial strains is conducted at a humidity level of 60% and 25° C. (for aspergillus) or 37° C. (for candida). (2) 0.9% stroke-physiological saline solution comprising 0.5% Tween-80 is used to prepare bacterial suspension for experiment. Hemocytometer is utilized to adjust concentration of the bacterial suspension to 1-3×10^6 CFU/ml (0.5 McFarland units) to make stock solution in reserve at -20° C. During the sensitivity test, the RPMI-1640 liquid medium is diluted 1000 times to 1-3×10^3 CFU/ml. (3) The RPMI-1640 liquid is utilized as diluent to 10-fold dilute stock solution of peptides. […] The eleventh orifice is used as living control orifice, while the twelfth one as blank control. (4) The RPMI-1640 liquid is utilized as diluent to 10-fold dilute stock solution of FCZ and ICZ. […] Ditto for other operations.
# [7] = tested on: Enterococcus faecalis; experiment: organism not typed; type: cell-based
# Experimental: The experimental strains are 37 standard strains preserved in lab and clinical isolated bacteria, including drug-resistant bacteria and quality-control bacteria selecting Staphylococcus aureus ATCC29213, Enterococcus faecalis ATCC29212, Escherichia coli ATCC25922, Pseudomonas aeruginosa ATCC27853 and klebsiella pneumoniae ATCC700603.
# (1) Sensitivity test is conducted with two-fold agar dilution method and Denlay multipoint inoculator. Test bacteria are cultured with nutrient broth and brain heart infusion.
# (2) The drug is double diluted into different concentration with MH broth after dissolved and then placed in the plate respectively.
# (4) After solidification of the culture medium in the plate, test bacteria (10^4CFU/point) are inoculated by multipoint inoculator and cultured for 18 hours at constant 35° C. Then observe the results.
# [8] = tested on: Candida albicans and Escherichia; experiment: Therapeutic experiment of injection on mice with multiple mixed infections, survival time; type: in vivo, ICR mice; conditions: 30 mg/kg, n = 20
# Experimental: There are 60 male and 60 female ICR mice with the weight ranging from 18 g to 22 g. According to their weight, they are randomly divided into 6 groups of 20 mice: blank control group, negative control group, Levofloxacin positive control group, and high, middle and low dose of PL-18 (SEQ ID NO: 1) group. With trinitrophenal marking method, all the mice are raised with ordinary animal feeds in the ordinary animal houses and they can drink water freely. Alternating of light and dark is conducted every 12 hours.
# 2. Infected Strains: Candida albicans and Escherichia
# PL-18 (SEQ ID NO: 1) freeze-dried powder injection (supplied by Jiangsu ProteLight Pharmaceutical & Biotechnology Co., LTD.), Levofloxacin Hydrochloride and Sodium Chloride Injection (supplied by Yangtze River Pharmaceutical Group) and 0.9% Sodium Chloride Injection (supplied by Chifeng Rongjitang Pharmaceutical CO., Ltd.)
# (1) The preparation of bacterial suspension is the same as above.
# (2) The Candida albicans suspension cultured overnight is diluted to 1×10^6CFU/ml with Sodium Chloride and 5×10^5CFU of which is injected into abdominal cavity of every mouse; the Escherichia suspension cultured overnight is diluted to 2×10^8CFU/ml and 1×10^7CFU of which is injected into abdominal cavity of every mouse to make model with mixed infections.
# (3) The blank control group is injected with normal saline into their abdominal cavity, the positive control group is injected with Levofloxacin into their abdominal cavity.
# (4) Administration: The drugs are administered according to weight right after the model is ready. All the groups except the blank and the infected negative control group are injected with different dosage of different injections through caudal vena twice a day successively for three days, and they are observed for fourteen days.
# (5) Observe death of the animals and record their survival time.
# [9] = 06-71 (VRE) Vancomycin-resistant Enterococci, read-out: MIC
# [10] = HH22* (AMEs) Aminoglycoside-modifying enzyme, read-out: MIC
# [11] = strain 06-7 (listed under Enterococcus faecalis), read-out: MIC
molecule,measurement,setting,value
CC[C@@H](C)[C@@H](NC(=O)[C@@H](CCCCN)NC(=O)[C@@H](CO)NC(=O)[C@@H](Cc1ccccc1)NC(=O)[C@@H](CC(C)C)NC(=O)[C@@H](CCCCN)NC(=O)[C@@H](CCC(=O)O)NC(=O)[C@@H](CC(C)C)NC(=O)[C@@H](CCCNC(=N)N)NC(=O)[C@@H](CCCCN)NC(=O)[C@@H](Cc1ccccc1)NC(C)=O)C(=O)N[C@H](Cc1c[nH]c2ccccc12)C(=O)N[C@H](CC(N)=O)C(=O)N[C@H](Cc1c[nH]c2ccccc12)C(=O)N[C@H](CCCCN)C(N)=O [PL-17] (Ac-[dF][dK][dR][dL][dE][dK][dL][dF][dS][dK][dI][dW][dN][dW][dK]-NH2),Minimal inhibitory concentration,[1]; JLC 30784 aspergillus flavous,>64 µg/mL
same,Minimal inhibitory concentration,[1]; JLC 40437 aspergillus flavous,>64 µg/mL
same,Minimal inhibitory concentration,[2]; JLC 30367 candida glabrata,4 µg/mL
same,Minimal inhibitory concentration,[2]; JLC 31512 candida glabrata,8 µg/mL
same,Minimal inhibitory concentration,[3]; JLC 30506 aspergillus fumigatus,32 µg/mL
same,Minimal inhibitory concentration,[3]; JLC 30883 aspergillus fumigatus,32 µg/mL
same,Minimal inhibitory concentration,[4]; JLC 33659 candida albicans,4 µg/mL
same,Minimal inhibitory concentration,[4]; JLC 33660 candida albicans,4 µg/mL
same,Minimal inhibitory concentration,[5]; JLC 31379 candida tropicalis,2 µg/mL
same,Minimal inhibitory concentration,[5]; JLC 31384 candida tropicalis,2 µg/mL
same,Minimal inhibitory concentration,[6]; JLC 30366 candida krusei,8 µg/mL
same,Minimal inhibitory concentration,[6]; JLC 30383 candida krusei,8 µg/mL
same,MIC,[7]; [9],1.7 µM
same,MIC,"[7]; Enterococcus faecalis ATCC29212, read-out: MIC",5.3 µM
same,MIC,[7]; [10],10.7 µM
same,MIC,[7]; [11],5.3 µM
Ac-FKKLKKLFSKLWNWK-NH2 [PL-13],Minimal inhibitory concentration,[1],>64 µg/mL
same,Minimal inhibitory concentration,[3],32 µg/mL
same,Minimal inhibitory concentration,[4],8 µg/mL
same,MIC,[7]; [9],1.7 µM
same,MIC,[7]; [10],1.7 µM
same,MIC,[7]; read-out: MIC,5.3 µM
same,MIC,[7]; [11],1.3 µM
"C[C@H]1COc2c(N3CCN(C)CC3)c(F)cc3c(=O)c(C(=O)O)cn1c23 [Levofloxacin, levofloxacin, reference compound]",Mean survival Time,[8]; observed fourteen days,3.9* day
same,Mortality of mice in different days after infection,[8]; day 1,8
same,Mortality of mice in different days after infection,[8]; day 2,6
same,Mortality of mice in different days after infection,[8]; day 3,2
same,Mortality of mice in different days after infection,[8]; day 4,0
same,Mortality of mice in different days after infection,[8]; day 5,0
same,MIC,[7]; [9],2.4 µM
same,MIC,"[7]; Enterococcus faecalis, ATCC29212, Enterococcus faecalis ATCC29212",1.2 µM
same,MIC,"[7]; Enterococcus faecalis, HH22* (AMEs) Aminoglycoside-modifying enzyme",1.2 µM
same,MIC,"[7]; Enterococcus faecalis, strain 06-7 (listed under Enterococcus faecalis)",19.2 µM

# From patent publication US9273095B2, “Antibiotic peptide and preparation method therefor and application therefor” (priority 2011, dated 2016)
